Measured values reported in the NIST ThermoML archive (doi:10.1021/acs.jced.5b00944).
Numbers after ± are expanded uncertainties.

Key:
[1] = for surface tension liquid-gas: Capillary rise; for speed of sound / mass density: 100 kPa, Liquid; for speed of sound: Sing-around technique in a fixed-path interferometer; for mass density: Vibrating tube method
[2] = xn = mol fraction of the nth substance listed; conditions: x1 = 1; for surface tension liquid-gas: Capillary rise; for speed of sound: Sing-around technique in a fixed-path interferometer

O [water]
[1]
Conditions | speed of sound [m/s] | surface tension liquid-gas [mN/m]
297.7 K | – | 71.9 ± 1.2
304.8 K | – | 70.6 ± 1.2
313.2 K | – | 69.5 ± 1.2
318.15 K | 1536.7 ± 0.9 | –
324.1 K | – | 67.6 ± 1.2
333.15 K | 1551.3 ± 0.9 | –

O [water] + CCCC[N+]1(C)CCCC1.N#CN=C=[N-]
[2]
Conditions | surface tension liquid-gas [mN/m]
297.7 K | 71.9 ± 1.2
304.8 K | 70.6 ± 1.2
313.2 K | 69.5 ± 1.2
324.1 K | 67.6 ± 1.2

[2], 100 kPa, Liquid
Conditions | speed of sound [m/s]
318.15 K | 1536.7 ± 0.9
333.15 K | 1551.3 ± 0.9

Conditions | mass density [kg/m3]
[2], 333.15 K, 100 kPa, Liquid, Vibrating tube method | 983.19 ± 4

CCCC[N+]1(C)CCCC1.N#CN=C=[N-] [1-butyl-1-methylpyrrolidinium dicyanamide]
[1]
Conditions | mass density [kg/m3] | speed of sound [m/s]
288.15 K | 1019.11 ± 0.88 | 1834.4 ± 2.2
298.15 K | 1013.48 ± 0.86 | 1809.6 ± 2.2
308.15 K | 1007.82 ± 0.85 | 1785.2 ± 2.2
318.15 K | 1002.33 ± 0.84 | 1761 ± 2.2
333.15 K | 994.14 ± 0.83 | 1724.7 ± 2.2
